For 42 compounds, inhibition and IC50 results are on record in patent publication US7829560B2, “1,4-disubstituted naphthalenes as inhibitors of P38 MAP kinase” (Arqule, Inc., priority 2004, dated 2010).

Structures are written as SMILES.

This test concerns the target T1, p38α (Homo sapiens, UniProt Q16539).
T1 construct: p38 MAP Kinases are recombinant human full-length proteins with an amino-terminal GST fusion; GST (N); purchased Upstate Biotechnology Inc; host or cells: E. coli
Nature of the test: p38 MAP Kinase assay: inhibition of ATF2 phosphorylation, ELISA. In kind it is biochemical. Particulars: for inhibition at 10 µM: substrate ATF2, read-out: [ENZ] P38 ALPHA, PCT INH, ELISA (10 uM;ATF2) (Percent); for IC50: ATF2 phosphorylation, read-out: [ENZ] P38 ALPHA, IC50, ELISA. The source says:
Compounds of the invention are screened for the ability to inhibit ATF2 phosphorylation by p38 MAP Kinase in vitro. The ability of compounds to inhibit ATF2 phosphorylation in this in vitro assay is correlated with the inhibition of p38 MAP Kinase and TNFα expression in vivo, and is therefore an indicator of potential in vivo therapeutic activity (Raingeaud, J., et al, J. Biol. Chem., 270: 7420-7426, 1995, Brinkman, M. N., et al, J. Biol. Chem. 274: 30882-30886, 1999 and Fuchs, S. Y. et al, J. Biol. Chem. 275: 12560-12564, 2000).
Materials: All kinases and the substrate ATF2 are acquired from Upstate Biotechnology Inc. p38 MAP Kinases are recombinant human full-length proteins with an amino-terminal GST fusion, expressed in and purified from E. coli. ATF2 is a GST fusion protein containing amino acids 19-96 of human ATF2 expressed in E. coli. All proteins are aliquoted and stored at −80° C.
Methods: p38 MAP Kinase assays are performed using an assay buffer containing 25 mM HEPES, pH 7.5, 10 mM MgCl2, 2 mM DTT, 20 mM β-glycerophosphate, 0.1 mM Na3VO4, 40 μM ATP and 1.25 μM of ATF2 and in the absence or presence of 1% human serum albumin, Method I and II, respectively, with 0.4-6 ng of protein depending on the kinase used. Compounds are serially diluted in DMSO and 2 μL of test compound at 25× final concentration is used. The vehicle control receives DMSO only. Test compounds are pre-incubated with 20 μl of enzyme in kinase buffer (25 mM HEPES, pH 7.5, 10 mM MgCl2, 2 mM DTT, 20 mM β-glycerophosphate, 0.1 mM Na3VO4 in the absence or presence of 1% human serum albumin, Method I and II, respectively) at room temperature for 15 minutes. […] The reactions are incubated for 30 minutes at 37° C. and terminated by the addition of 18 μl of 200 mM EDTA. An ELISA method (I or II) is used to measure the phosphorylation of ATF2 at Thr 69. Method I: 96-well high binding plates (Corning 3369) are coated with 50 μl of kinase reaction for 1 hour at 37° C. The coated plates are washed with 200 μl washing buffer (25 mM Tris HCl, pH 8.3, 192 mM glycine, 0.1% SDS and 0.05% Tween-20) three times. The plates are then washed three times with SuperBlock in TBS (Pierce, 37535). After blocking, plates are incubated with 50 μl of rabbit anti-phospho-ATF2 antibody (Cell Signaling, 9221L, 1:500) for 30 minutes at 37° C. Plates are washed three times with washing buffer prior to incubation with 50 μl HRP-conjugated goat anti-rabbit antibody (Cell Signaling, 7074, 1:500) for 30 minutes at 37° C. Plates are then washed three times with washing buffer before incubation with 50 μl of Ultra TMB-ELISA (Pierce, 34028) for 8 minutes at room temperature. Finally, 50 ul of phosphoric acid (1 M) is added to stop reactions and plate absorbance is read at 450 nm on a SpectraMax 250 plate reader. Method II: 96-well high binding plates (Corning 3369) are coated with 400 ng of monoclonal antibody against GST-tag (Cell signaling) in 100 μl containing sodium borate (pH 8.3) for 90 minutes at 37° C. The plates are washed with 200 μl washing buffer (25 mM Tris HCl, pH 7.2, 150 mM NaCl and Tween-20) three times and blocked with 200 μl of 5% nonfat milk for 30 minutes at room temperature. The plates are washed three times with washing buffer, 50 μl of stopped kinase reaction are added to each well and incubated for 80 minutes at 37° C. The plates are washed three times with 200 μl washing buffer, and the plates are incubated with 50 μl of rabbit anti-phospho-ATF2 antibody (Cell Signaling, 9221L, 1:500) for 30 minutes at 37° C. Plates are washed three times with washing buffer prior to incubation with 50 μl HRP-conjugated goat anti-rabbit antibody (Cell Signaling, 7074, 1:500) for 30 minutes at 37° C. Plates are washed three times with washing buffer before incubation with 50 μl of Ultra TMB-ELISA (Pierce, 34028) for 25 minutes at room temperature. Finally, 50 μl of phosphoric acid (1 M) is added to stop reactions and plate absorbance is read at 450 nm on a SpectraMax 250 plate reader. […]

T1 sequence (Q16539 whole entry, the tested form may be a part): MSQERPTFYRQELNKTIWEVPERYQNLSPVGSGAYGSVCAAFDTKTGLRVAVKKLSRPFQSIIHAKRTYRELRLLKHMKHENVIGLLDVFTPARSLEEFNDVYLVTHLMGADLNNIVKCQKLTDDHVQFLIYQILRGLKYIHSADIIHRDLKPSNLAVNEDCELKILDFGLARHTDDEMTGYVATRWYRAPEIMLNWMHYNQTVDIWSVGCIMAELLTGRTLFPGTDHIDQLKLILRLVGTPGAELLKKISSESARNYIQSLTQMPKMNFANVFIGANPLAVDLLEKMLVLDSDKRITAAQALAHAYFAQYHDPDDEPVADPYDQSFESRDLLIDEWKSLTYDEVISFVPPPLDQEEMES

As to `CN1CCN(CCOc2ccc(NC(=O)c3ccnc(Cl)c3)c3ccccc23)CC1` [Compound B6], the inhibition at 10 µM was found to be 7.5%.

In the case of `O=C(Nc1ccc(OCCN2CCCCC2)c2ccccc12)c1ccnc(Cl)c1` [Compound B7], the inhibition at 10 µM was found to be 21%.

`C[C@@H]1CN(CCOc2ccc(NC(=O)c3ccnc(Cl)c3)c3ccccc23)C[C@H](C)O1` [Compound B8]: the inhibition at 10 µM stood at 36.5%.

Regarding `CN1CCN(CCOc2ccc(NC(=O)c3ccc(-n4ccc(C(F)(F)F)n4)cc3)c3ccccc23)CC1` [Compound B9], the inhibition at 10 µM was 21%.

`O=C(Nc1ccc(OCCN2CCCCC2)c2ccccc12)c1ccc(-n2ccc(C(F)(F)F)n2)cc1` [Compound B10]: the inhibition at 10 µM is 12.5%.

For the compound `O=C(Nc1ccc(OCCN2CCSCC2)c2ccccc12)c1ccc(-n2cccn2)cc1` [Compound B11], the inhibition at 10 µM stood at 24%.

Take `C[C@@H]1CN(CCOc2ccc(NC(=O)c3ccc(-n4cccn4)cc3)c3ccccc23)C[C@H](C)O1` [Compound B12]: the inhibition at 10 µM is 16.5%.

Take `CN1CCN(CCOc2ccc(NC(=O)c3ccc(CN4CCS(=O)(=O)CC4)cc3)c3ccccc23)CC1` [Compound B13]: the inhibition at 10 µM was found to be 11.5%.

`O=C(Nc1ccc(OCCN2CCCCC2)c2ccccc12)c1ccc(CN2CCS(=O)(=O)CC2)cc1` [Compound B14]: the inhibition at 10 µM was found to be 6%.

For the compound `CCOC(=O)N1CCN(CCOc2ccc(NC(=O)c3cccc(N4CCOCC4)c3)c3ccccc23)CC1` [Compound B15], the inhibition at 10 µM turned out to be 18%.

For `CCOC(=O)N1CCN(CCOc2ccc(NC(=O)c3ccc(CN4CCS(=O)(=O)CC4)cc3)c3ccccc23)CC1` [Compound B16], the inhibition at 10 µM worked out at 27.5%.

In the case of `O=C(Nc1ccc(OCCN2CCSCC2)c2ccccc12)c1ccc(CN2CCS(=O)(=O)CC2)cc1` [Compound B17], the inhibition at 10 µM worked out at 30.5%.

Consider `O=C(Nc1ccc(OCCN2CCOCC2)c2ccccc12)c1ccc(CN2CCS(=O)(=O)CC2)cc1` [Compound B18], for which the inhibition at 10 µM turned out to be 10.5%.

As for `CN1CCN(CCOc2ccc(NC(=O)c3ccnc(N4CCOCC4)c3)c3ccccc23)CC1` [Compound B21], the inhibition at 10 µM was 19.5%.

Turning to `O=C(Nc1ccc(OCCN2CCCCC2)c2ccccc12)c1ccnc(N2CCOCC2)c1` [Compound B22], the inhibition at 10 µM amounted to 12.5%.

Consider `C[C@@H]1CN(CCOc2ccc(NC(=O)c3ccnc(N4CCOCC4)c3)c3ccccc23)C[C@H](C)O1` [Compound B23], for which the inhibition at 10 µM amounted to 38%.

As to `Cc1cc(C(=O)Nc2ccc(OCCN3CCOCC3)c3ccccc23)cc(Cl)n1` [Compound B64], the inhibition at 10 µM came out at 3%.

Take `CN(C)CCN(C)c1cc(F)cc(C(=O)Nc2ccc(OCCN3CCOCC3)c3ccccc23)c1` [Compound B68]: the inhibition at 10 µM stood at 10%.

As to `CC1CCCN(c2cccc(C(=O)Nc3ccc(OCCN4CCOCC4)c4ccccc34)n2)C1` (centres unmarked) [Compound B69], the inhibition at 10 µM turned out to be 34%.

In the case of `O=C(Nc1ccc(OCCN2CCOCC2)c2ccccc12)c1cccc(N2CCC(N3CCCCC3)CC2)n1` [Compound B70], the inhibition at 10 µM is 14%.

For the compound `O=C(Nc1ccc(OCCN2CCOCC2)c2ccccc12)c1cccc(N2CCC(c3ccccc3)CC2)n1` [Compound B72], the inhibition at 10 µM was found to be 0%.

As to `O=C(Nc1ccc(OCCN2CCOCC2)c2ccccc12)c1cccc(C(F)(F)F)c1` [Compound B73], the inhibition at 10 µM is 10%.

`O=C(Nc1ccc(OCCN2CCOCC2)c2ccccc12)c1cccc2c1C(=O)c1ccccc1-2` [Compound B74]: the inhibition at 10 µM worked out at 31%.

For the compound `O=C(Nc1ccc(OCCN2CCOCC2)c2ccccc12)c1cccc2c1Cc1ccccc1-2` [Compound B75], the inhibition at 10 µM stood at 27% and the IC50 is greater than 10 µM.

Take `CC(C)c1cc(C(=O)Nc2ccc(OCCN3CCOCC3)c3ccccc23)c(O)c(C(C)C)c1` [Compound B76]: the inhibition at 10 µM was 0%.

`O=C(Nc1ccc(OCCN2CCOCC2)c2ccccc12)c1cc(F)cc(C(F)(F)F)c1` [Compound B77]: the inhibition at 10 µM amounted to 28%.

Consider `O=C(Nc1ccc(OCCN2CCOCC2)c2ccccc12)c1cccc(C(=O)c2ccccc2)c1` [Compound B78], for which the inhibition at 10 µM amounted to 34% and the IC50 was greater than 10 µM.

Consider `Cc1cc(C(=O)Nc2ccc(OCCN3CCOCC3)c3ccccc23)nn1C` [Compound B79], for which the inhibition at 10 µM is 1%.

As to `CCn1nc(C)cc1C(=O)Nc1ccc(OCCN2CCOCC2)c2ccccc12` [Compound B80], the inhibition at 10 µM was determined as 9%.

With `O=C(Nc1ccc(OCCN2CCOCC2)c2ccccc12)C1=CC=CC(C(F)(F)F)C1Cl` (centres unmarked) [Compound B81], the inhibition at 10 µM was found to be 6%.

On to `O=C(Nc1ccc(OCCN2CCOCC2)c2ccccc12)c1cc(C(F)(F)F)cc(C(F)(F)F)c1` [Compound B83], for which the inhibition at 10 µM came out at 18%.

Regarding `O=C(Nc1ccc(OCCN2CCOCC2)c2ccccc12)c1cccc(-c2ccc(OC(F)(F)F)cc2)c1` [Compound B87, 4′-Trifluoromethoxy-biphenyl-3-carboxylic acid [4-(2-morpholin-4-yl-ethoxy)-naphthalen-1-yl]-amide], the inhibition at 10 µM worked out at 29% and the concentration for half-maximal inhibition (IC50) was greater than 100 µM.

As to `O=C(Nc1ccc(OCCN2CCOCC2)c2ccccc12)c1cccc2ccccc12` [Compound B89], the inhibition at 10 µM stood at 29%.

On to `O=C(Nc1ccc(OCCN2CCOCC2)c2ccccc12)c1cccc(-c2cc(C(F)(F)F)cc(C(F)(F)F)c2)c1` [Compound B92], for which the inhibition at 10 µM is 0%.

Take `Cc1ccc(-c2cccc(C(=O)Nc3ccc(OCCN4CCOCC4)c4ccccc34)c2)cc1` [Compound B93]: the inhibition at 10 µM amounted to 34% and the IC50 is greater than 10 µM.

`O=C(Nc1ccc(OCCN2CCOCC2)c2ccccc12)c1cccc(-c2cccc(Cl)c2)c1` [Compound B94]: the inhibition at 10 µM was 71% and the IC50 is 1.14 µM.

Consider `O=C(Nc1ccc(OCCN2CCOCC2)c2ccccc12)c1cccc(-c2ccc(Cl)cc2Cl)c1` [Compound B95], for which the inhibition at 10 µM was 58% and the IC50 is 1.75 µM.

Consider `O=C(Nc1ccc(OCCN2CCOCC2)c2ccccc12)c1cccc(-c2cc(Cl)cc(Cl)c2)c1` [Compound B96], for which the inhibition at 10 µM stood at 31% and the IC50 was greater than 100 µM.

Take `O=C(Nc1ccc(OCCN2CCOCC2)c2ccccc12)c1cccc(-c2ccccc2C(F)(F)F)c1` [Compound B97]: the inhibition at 10 µM is 31% and the IC50 is greater than 10 µM.

On to `O=C(Nc1ccc(OCCN2CCOCC2)c2ccccc12)c1cccc(/C=C/c2ccccc2)c1` [Compound B98], for which the inhibition at 10 µM is 15% and the IC50 was greater than 10 µM.

In the case of `CCc1ccc(-c2cccc(C(=O)Nc3ccc(OCCN4CCOCC4)c4ccccc34)c2)cc1` [Compound B102], the inhibition at 10 µM is 21% and the IC50 is greater than 100 µM.

For `O=C(Nc1ccc(OCCN2CCOCC2)c2ccccc12)c1cccc(-c2cc(F)cc(F)c2)c1` [Compound B103], the inhibition at 10 µM worked out at 68% and the IC50 worked out at 1.63 µM.

The term IC50 denotes the concentration at which inhibition is half-maximal.
